Assay results published in patent US10172868B2, “Substituted quinazolines for inhibiting kinase activity” (NeuPharma, Inc., priority 2013, dated 2019).

Assays:
HCC827 cells = test: cells; details: Homo sapiens, HCC827, 72 h, read-out: IC50 in HCC827 cells
Method: Taxol (as a positive control. Sigma) and compounds were dissolved in DMSO (Sigma), and the final concentration of DMSO in the medium was 1%. Tumor cells were plated in 96-well plates at densities of about 4000 cells/well of a 96-well plate and allowed to adhere/grow for 24 h. They were then treated with various concentrations of drug for 72 h, 3-(4,5-Dimethylthiazol-2-yl)-2,5-diphenyltetrazolium bromide (MTT, Sigma) was used to determine the number of viable cells at the time of compound addition and the number of cells remaining after 72 h compound exposure. The number of cells remaining after 72 h was compared to the number of viable cells at the time of compound addition by measuring the absorbance at 570 nm, allowing for the calculation of growth inhibition.
(§1) All concentrations of compounds were tested in triplicate and controls were averaged over 4 wells. IC50 was calculated by plotting the concentration of compound vs the percentage of inhibition in treated wells using GraphPad Prism 5.
The scale utilized in Tables 5 is as follows: +++ less than 100 nM; ++ between 100 nM and 500 nM; and + greater than 500 nM.

A431 cells = test: cells; details: Homo sapiens, A-431, 72 h, read-out: IC50 in A431 cells
EGFR (ErbB1) = EGFR (ErbB1) (Homo sapiens (Human), UniProt P00533); test: Z'-LYTE kinase inhibition assay, EGFR; format: biochemical; details: for inhibition at 1 µM: read-out: % inhibition against EGFR (Compound at 1 μM); for inhibition at 0.041 µM: read-out: % inhibition against EGFR (Compound at 0.041 μM); for IC50: read-out: IC50 against EGFR
How it was run: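 Z'-LYTE FRET assay run with 1.1-5.25 ng EGFR and 2 μM peptide substrate in 50 mM HEPES pH 7.5, 10 mM MgCl2, 2 mM MnCl2, 1 mM EGTA, 1 mM DTT, 0.01% BRIJ-35, 1% DMSO. Kinase reaction 60 min at room temperature, then 60 min development; IC50 from 10-point 3-fold titrations.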

H1975 cells = test: Inhibition of cancer cell growth, MTT assay, H1975; details: Homo sapiens, NCI-H1975, 72 h, read-out: IC50 in H1975 cells
EGFR (ErbB1) T790M L858R = EGFR (ErbB1) T790M L858R (Homo sapiens (Human), UniProt P00533, L858R/T790M); test: Z'-LYTE kinase inhibition assay, EGFR L858R/T790M; format: biochemical; details: for inhibition at 0.0137 µM: read-out: % inhibition against EGFR L858R/T790M (Compound at 0.0137 μM); for inhibition at 1 µM: read-out: % inhibition against EGFR L858R/T790M (Compound at 1 μM); for IC50: read-out: IC50 against EGFR L858R/T790M
How it was run: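 Z'-LYTE FRET peptide assay at 1% DMSO, 10-point 3-fold titrations; kinase/peptide mix in 50 mM HEPES pH 6.5, 0.01% BRIJ-35, 10 mM MgCl2, 1 mM EGTA, 0.02% NaN3. Kinase reaction ran 60 min at room temperature, followed by 60 min development and a fluorescence read. IC50 derived from the concentration series.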

H1299 cells = test: Inhibition of cancer cell growth, MTT assay, H1299; details: Homo sapiens, NCI-H1299, 72 h, read-out: IC50 in H1299 cells
Method: Inhibition of cell growth by compounds was measured using MTT assay (Mosmann, T., Journal of Immunological Methods, 1983, 65, 55-63). Tumor cell lines were purchased from ATCC (American Type Culture Collection, Manassas, Va.). All cell lines were maintained in RPMI 1640 (Hyclone) supplemented with 10% fetal bovine serum (FBS, Hyclone), glutamine (2 mM, Hyclone), and antibiotics (penicillin 100 U/mL and streptomycin 50 μg/mL) at 37° C. in a humidified atmosphere of 5% CO2 in air. Taxol (as a positive control. Sigma) and compounds were dissolved in DMSO (Sigma), and the final concentration of DMSO in the medium was 1%. Tumor cells were plated in 96-well plates at densities of about 4000 cells/well of a 96-well plate and allowed to adhere/grow for 24 h. They were then treated with various concentrations of drug for 72 h, 3-(4,5-Dimethylthiazol-2-yl)-2,5-diphenyltetrazolium bromide (MTT, Sigma) was used to determine the number of viable cells at the time of compound addition and the number of cells remaining after 72 h compound exposure. The number of cells remaining after 72 h was compared to the number of viable cells at the time of compound addition by measuring the absorbance at 570 nm, allowing for the calculation of growth inhibition.
as §1

Sequence of EGFR (ErbB1) (P00533 25-1210): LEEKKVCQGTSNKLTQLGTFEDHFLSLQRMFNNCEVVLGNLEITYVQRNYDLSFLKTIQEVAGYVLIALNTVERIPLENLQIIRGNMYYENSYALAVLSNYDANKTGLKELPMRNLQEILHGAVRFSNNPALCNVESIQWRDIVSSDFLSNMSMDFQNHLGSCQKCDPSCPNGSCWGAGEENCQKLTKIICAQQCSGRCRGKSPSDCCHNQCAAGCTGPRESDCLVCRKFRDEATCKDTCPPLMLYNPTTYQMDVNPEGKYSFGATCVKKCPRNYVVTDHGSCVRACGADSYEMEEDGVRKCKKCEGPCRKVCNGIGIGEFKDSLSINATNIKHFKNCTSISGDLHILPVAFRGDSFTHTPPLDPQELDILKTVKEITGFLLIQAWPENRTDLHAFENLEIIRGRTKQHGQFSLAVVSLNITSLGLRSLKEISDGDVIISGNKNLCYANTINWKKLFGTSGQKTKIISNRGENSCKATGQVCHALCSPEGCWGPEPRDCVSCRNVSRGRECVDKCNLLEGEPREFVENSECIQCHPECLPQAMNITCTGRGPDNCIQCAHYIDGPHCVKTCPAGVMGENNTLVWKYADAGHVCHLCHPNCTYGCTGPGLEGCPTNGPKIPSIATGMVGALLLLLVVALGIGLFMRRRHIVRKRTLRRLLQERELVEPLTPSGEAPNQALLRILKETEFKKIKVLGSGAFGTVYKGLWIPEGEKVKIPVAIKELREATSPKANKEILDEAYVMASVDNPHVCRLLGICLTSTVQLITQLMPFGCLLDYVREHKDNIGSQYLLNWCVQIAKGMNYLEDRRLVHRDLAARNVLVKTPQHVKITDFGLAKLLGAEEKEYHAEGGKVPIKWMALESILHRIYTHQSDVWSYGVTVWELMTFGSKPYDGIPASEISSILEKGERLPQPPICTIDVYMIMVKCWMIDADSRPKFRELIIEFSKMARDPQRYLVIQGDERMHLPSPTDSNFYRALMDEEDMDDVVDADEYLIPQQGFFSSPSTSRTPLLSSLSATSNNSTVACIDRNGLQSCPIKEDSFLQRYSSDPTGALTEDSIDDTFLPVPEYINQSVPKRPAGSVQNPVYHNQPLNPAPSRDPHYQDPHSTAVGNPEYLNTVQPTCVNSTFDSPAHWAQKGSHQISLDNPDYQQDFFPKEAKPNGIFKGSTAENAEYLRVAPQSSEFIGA
Sequence of EGFR (ErbB1) T790M L858R (P00533 25-1210 T790M/L858R): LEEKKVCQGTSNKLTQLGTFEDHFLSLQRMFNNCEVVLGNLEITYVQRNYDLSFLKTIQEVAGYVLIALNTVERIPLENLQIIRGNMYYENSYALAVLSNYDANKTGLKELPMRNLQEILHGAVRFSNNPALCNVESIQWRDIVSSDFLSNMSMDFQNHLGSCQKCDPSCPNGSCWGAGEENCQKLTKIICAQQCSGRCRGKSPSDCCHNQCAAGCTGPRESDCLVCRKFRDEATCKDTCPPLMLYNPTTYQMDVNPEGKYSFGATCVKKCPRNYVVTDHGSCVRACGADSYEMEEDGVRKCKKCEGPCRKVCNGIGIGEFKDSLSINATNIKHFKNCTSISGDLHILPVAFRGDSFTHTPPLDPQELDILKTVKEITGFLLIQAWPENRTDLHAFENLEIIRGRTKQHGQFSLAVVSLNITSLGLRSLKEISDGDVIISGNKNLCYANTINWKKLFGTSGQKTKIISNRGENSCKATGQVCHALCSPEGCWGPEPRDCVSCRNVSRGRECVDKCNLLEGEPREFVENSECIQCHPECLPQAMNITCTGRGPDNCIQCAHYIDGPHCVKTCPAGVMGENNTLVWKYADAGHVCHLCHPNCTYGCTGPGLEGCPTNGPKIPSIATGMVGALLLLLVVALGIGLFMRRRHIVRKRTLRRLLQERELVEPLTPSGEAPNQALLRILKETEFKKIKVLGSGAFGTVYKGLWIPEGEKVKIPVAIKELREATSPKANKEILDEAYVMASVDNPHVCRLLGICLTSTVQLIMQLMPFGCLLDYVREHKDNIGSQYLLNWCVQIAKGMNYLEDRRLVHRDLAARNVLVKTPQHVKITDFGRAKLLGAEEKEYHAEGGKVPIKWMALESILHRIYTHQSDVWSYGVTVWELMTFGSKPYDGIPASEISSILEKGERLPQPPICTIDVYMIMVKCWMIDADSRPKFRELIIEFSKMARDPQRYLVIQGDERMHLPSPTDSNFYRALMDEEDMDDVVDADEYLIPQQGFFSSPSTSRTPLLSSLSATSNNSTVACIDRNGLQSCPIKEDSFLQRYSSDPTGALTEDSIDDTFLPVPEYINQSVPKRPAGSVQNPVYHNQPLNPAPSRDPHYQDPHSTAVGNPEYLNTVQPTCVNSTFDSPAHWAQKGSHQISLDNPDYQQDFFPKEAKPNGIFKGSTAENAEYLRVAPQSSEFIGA

SMILES	IC50 (HCC827 cells)	IC50 (A431 cells)	inhibition at 1 µM (EGFR (ErbB1))	IC50 (H1975 cells)	inhibition at 0.0137 µM (EGFR (ErbB1) T790M L858R)	inhibition at 1 µM (EGFR (ErbB1) T790M L858R)	IC50 (EGFR (ErbB1) T790M L858R)	IC50 (H1299 cells)	inhibition at 0.041 µM (EGFR (ErbB1))	IC50 (EGFR (ErbB1))
C=CC(=O)Nc1cccc(-c2cccc3cnc(Nc4ccc(N5CCOCC5)cc4)nc23)c1 [Example C001, N-(3-(2-((4-morpholinophenyl)amino)quinazolin-8-yl)phenyl)acrylamide]	< 100 nM	> 500 nM	> 50%	100 to 500 nM	< 50%	> 50%	< 100 nM	> 500 nM	–	–
C=CC(=O)Nc1cccc(-c2cccc3cnc(Nc4ccc(N5CCOCC5)cc4OC)nc23)c1 [Example C002, N-(3-(2-((2-methoxy-4-morpholinophenyl)amino)quinazolin-8-yl)phenyl)acrylamide]	100 to 500 nM	> 500 nM	< 50%	–	–	> 50%	–	–	–	–
C=CC(=O)Nc1cccc(-c2cccc3cnc(Nc4ccc(N5CCN(C)CC5)cc4OC)nc23)c1 [Example C003, N-(3-(2-((2-methoxy-4-(4-methylpiperazin-1-yl)phenyl)amino)quinazolin-8-yl)phenyl)acrylamide]	< 100 nM	> 500 nM	> 50%	100 to 500 nM	> 50%	> 50%	< 100 nM	> 500 nM	–	–
c1ccc(-c2cccc3cnc(Nc4ccc(N5CCOCC5)cc4)nc23)cc1 [Example C004, N-(4-morpholinophenyl)-8-phenylquinazolin-2-amine]	> 500 nM	–	< 50%	> 500 nM	–	> 50%	–	–	–	–
C=CC(=O)Nc1cccc(-c2nccc3c(N)nc(Nc4ccc(N5CCOCC5)cc4)nc23)c1 [Example C005, N-(3-(4-amino-2-((4-morpholinophenyl)amino)pyrido[3,4-d]pyrimidin-8-yl)phenyl)acrylamide]	100 to 500 nM	–	> 50%	> 500 nM	–	< 50%	–	–	–	–
Fc1ccc(Cl)cc1-c1cccc2cnc(Nc3ccc(N4CCOCC4)cc3)nc12 [Example C007, 8-(5-chloro-2-fluorophenyl)-N-(4-morpholinophenyl)quinazolin-2-amine]	> 500 nM	–	< 50%	> 500 nM	–	< 50%	–	–	–	–
Clc1cccc(-c2cccc3cnc(Nc4ccc(N5CCOCC5)cc4)nc23)c1 [Example C008, 8-(3-chlorophenyl)-N-(4-morpholinophenyl)quinazolin-2-amine]	> 500 nM	–	< 50%	> 500 nM	–	< 50%	–	–	–	–
Fc1cccc(-c2cccc3cnc(Nc4ccc(N5CCOCC5)cc4)nc23)c1 [Example C009, 8-(3-fluorophenyl)-N-(4-morpholinophenyl)quinazolin-2-amine]	> 500 nM	–	< 50%	> 500 nM	–	< 50%	–	–	–	–
Fc1ccccc1-c1cccc2cnc(Nc3ccc(N4CCOCC4)cc3)nc12 [Example C010, 8-(2-fluorophenyl)-N-(4-morpholinophenyl)quinazolin-2-amine]	> 500 nM	–	< 50%	> 500 nM	–	< 50%	–	–	–	–
Clc1ccccc1-c1cccc2cnc(Nc3ccc(N4CCOCC4)cc3)nc12 [Example C011, 8-(2-chlorophenyl)-N-(4-morpholinophenyl)quinazolin-2-amine]	> 500 nM	> 500 nM	< 50%	> 500 nM	–	< 50%	–	–	–	–
C=CC(=O)Nc1cccc(-c2nccc3cnc(Nc4ccc(N5CCOCC5)cc4)nc23)c1 [Example C012, N-(3-(2-((4-morpholinophenyl)amino)pyrido[3,4-d]pyrimidin-8-yl)phenyl)acrylamide]	< 100 nM	> 500 nM	< 50%	100 to 500 nM	–	> 50%	–	–	–	–
C=CC(=O)Nc1cccc(-c2cccc3cnc(Nc4ccc(N5CCN(C)CC5)cc4)nc23)c1 [Example C021, N-(3-(2-((4-(4-methylpiperazin-1-yl)phenyl)amino)quinazolin-8-yl)phenyl)acrylamide]	< 100 nM	100 to 500 nM	–	< 100 nM	–	–	< 100 nM	100 to 500 nM	> 50%	< 100 nM
C=CC(=O)Nc1cccc(-c2cccc3cnc(Nc4ccc(N5CCN(C)CC5)nc4)nc23)c1 [Example C041, N-(3-(2-((6-(4-methylpiperazin-1-yl)pyridin-3-yl)amino)quinazolin-8-yl)phenyl)acrylamide]	< 100 nM	> 500 nM	–	100 to 500 nM	–	–	< 100 nM	> 500 nM	> 50%	< 100 nM
C=CC(=O)Nc1cccc(-c2cccc3cnc(Nc4ccc(N5CCN(C)CC5)cc4F)nc23)c1 [Example C044, N-(3-(2-((2-fluoro-4-(4-methylpiperazin-1-yl)phenyl)amino)quinazolin-8-yl)phenyl)acrylamide]	–	> 500 nM	–	< 100 nM	> 50%	–	< 100 nM	> 500 nM	> 50%	< 100 nM
C=CC(=O)Nc1cccc(-c2cccc3cnc(Nc4ccc(N5CCN(CCF)CC5)cc4)nc23)c1 [Example C053, N-(3-(2-((4-(4-(2-fluoroethyl)piperazin-1-yl)phenyl)amino)quinazolin-8-yl)phenyl)acrylamide]	–	100 to 500 nM	> 50%	< 100 nM	> 50%	> 50%	–	–	< 50%	–
C=CC(=O)Nc1cccc(-c2cccc3cnc(Nc4ccc(N5CCN(CCO)CC5)cc4)nc23)c1 [Example C059, N-(3-(2-((4-(4-(2-hydroxyethyl)piperazin-1-yl)phenyl)amino)quinazolin-8-yl)phenyl)acrylamide]	< 100 nM	100 to 500 nM	–	< 100 nM	–	–	< 100 nM	> 500 nM	> 50%	< 100 nM
